Results on 40 molecules are retold here after publication PMC4521150, “Discovery of Novel Inhibitors and Fluorescent Probe Targeting NAMPT” (Scientific Reports, 2015).

T1 sequence (P43490 whole entry): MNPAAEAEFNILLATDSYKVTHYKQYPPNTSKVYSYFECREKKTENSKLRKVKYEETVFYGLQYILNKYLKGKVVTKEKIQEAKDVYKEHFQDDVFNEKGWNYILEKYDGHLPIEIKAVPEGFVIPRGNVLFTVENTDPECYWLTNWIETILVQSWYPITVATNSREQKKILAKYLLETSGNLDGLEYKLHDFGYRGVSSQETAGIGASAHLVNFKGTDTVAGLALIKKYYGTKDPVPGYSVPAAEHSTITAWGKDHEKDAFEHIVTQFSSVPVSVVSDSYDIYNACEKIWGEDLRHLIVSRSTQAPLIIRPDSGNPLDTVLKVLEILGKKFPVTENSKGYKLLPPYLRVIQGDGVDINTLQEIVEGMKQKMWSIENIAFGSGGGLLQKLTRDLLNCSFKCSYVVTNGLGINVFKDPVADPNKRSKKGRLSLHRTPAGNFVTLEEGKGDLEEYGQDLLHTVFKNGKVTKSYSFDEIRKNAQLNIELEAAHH

The experiment concerns the target T1, recombinant human NAMPT (Homo sapiens, UniProt P43490).
T1 construct: His tag (N); made in house; host or cells: E. coli BL21-CodonPlus (DE3)-RIL, pET21a+ vector
As to the kind of experiment: HTS / fixed-concentration NAMPT activity screen (fluorometric). The conditions noted are these: 20 μM compound; analogues of the 46 non-fluorescent inhibitors. In kind it is biochemical. The text has this:
Using our previously established high throughput screening (HTS) platform and recombinant human NAMPT[14][15], we performed a HTS on a chemical library containing 30000 small-molecules (Chemdiv, CA, USA). Our HTS targeting NAMPT was developed based on a fluorometric method for NAMPT activity assay by measuring the fluorescence of nicotinamide mononucleotide (NMN) derivative resulting from the NAMPT enzymatic product NMN through simple chemical reactions (Fig. 1A). The 30000 compounds were dissolved with dimethyl sulfoxide (DMSO); most of compounds were soluble at 10 mM stock solution (94.1%), some compounds insoluble at 10 mM were soluble at 2.5 mM stock solution (4.4%), and the remaining compounds insoluble at 2.5 mM (1.5%) were diluted further during HTS experiments (Fig. 1B). To guarantee the quality of screening, S/N ratio, CV and Z’ factors were monitored throughout the screenings, and all three indices met the requirements of HTS (Fig. 1C–E). After a primary screen and a secondary screen of all compounds at 20 μM, 242 compounds were selected as the hits of NAMPT inhibitors (NAMPT activity < 40%), and the hit rate was ~0.8% (Fig. 1F). […] All these 55 compounds were not reported as NAMPT inhibitors previously. Among the 55 compounds, we noted 46 compounds were non-fluorescent and 9 compounds were fluorescent (Fig. 1F). These fluorescent and non-fluorescent compounds were further studied separately.
HTS was performed using our previously reported method. 0.5 μl stock of each compound (1 mM DMSO stock) was transferred to a 96-well PCR plate for screening. In the primary screening, 5 ng NAMPT in 20 μl reaction buffer [0.4 mM phosphoribosylpyrophosphate (PRPP, Sigma), 2 mM ATP, 0.02% BSA, 2 mM DTT, 12 mM MgCl2 and 50 mM Tris-HCl (pH = 7.5)] was added into each well, the plate was incubated at 37 °C for 5 min, then 4.5 μl substrate of NAM was added to initiate the enzyme reaction, resulting in a final concentration of 2% DMSO, 2 μg/ml NAMPT, 0.2 μM NAM and 20 μM compound. After reacting at 37 °C for 15 min, the enzyme reaction was terminated by heating at 95 °C for 1 min and cooling in an ice bath. The product of NMN was detected through the following approach: after adding 10 μl 20% acetophenone in DMSO and 10 μl 2 M KOH into each well, the mixture was vortex-mixed and kept in ice bath for 2 min. Then 45 μl 88% formic acid was added and the mixture was incubated at 37 °C for 10 min. Finally, 85 μl mixtures in each well were transferred into a flat-bottom 96-well black plate (Greiner), and the fluorescence (F) was measured using a Tecan Infinity M200 plate reader (Tecan Group Ltd.) by setting the excitation and emission wavelength to 382 nm and 445 nm respectively. The last row of each 96-well plate includes six wells of background controls and six wells of reference controls. The relative enzyme activity (Activity%) regulated by specific compound was calculated according to equation (1):
F0 was the averaged fluorescence of six background controls, representing zero activity from a simulated enzyme reaction with only NAMPT but no NAM and compound; F100% was the averaged fluorescence of six reference controls, representing 100% activity from intact enzyme reaction without compound perturbation.
Compounds with Activity% less than 40% were considered as inhibitors and subjected to a secondary screen inhibition validation, in which another background control (FC0), a simulated enzyme reaction with NAMPT and compound but no NAM, was introduced to eliminate the direct and/or indirect influence from compound. At this stage, the Activity% was calculated according to equation (2): […]
For `COc1ccc(OC)c(CNC(=O)CCCn2c(=O)c3cccn3c3cccnc32)c1` [C799-0387], the “NAMPT inhibition activity at 20 μM” value is listed as “No (showed no NAMPT inhibition activity at 20 μM (NAMPT activity ≥40%))”.

Regarding `Cc1ccc(OCc2ccc(-c3nc(C#N)c(NCc4cccnc4)o3)o2)cc1` [D301-0100], the “NAMPT inhibition activity at 20 μM” value is reported as “No (showed no NAMPT inhibition activity at 20 μM (NAMPT activity ≥40%))”.

`Cc1cccc(OCc2ccc(-c3nc(C#N)c(NCc4cccnc4)o3)o2)c1` [D301-0252]: the “NAMPT inhibition activity at 20 μM” value is recorded as “No (showed no NAMPT inhibition activity at 20 μM (NAMPT activity ≥40%))”.

Take `Cc1ccccc1OCc1ccc(-c2nc(C#N)c(NCc3cccnc3)o2)o1` [D301-0303]: the “NAMPT inhibition activity at 20 μM” value is reported as “No (showed no NAMPT inhibition activity at 20 μM (NAMPT activity ≥40%))”.

For `Cc1c(Cl)cccc1NC(=O)Cn1nc(C)c2sc3ccccc3c2c1=O` [E019-0120], the “NAMPT inhibition activity at 20 μM” value was “No (showed no NAMPT inhibition activity at 20 μM (NAMPT activity ≥40%))”.

For the molecule `Cc1cc(C)c(NC(=O)C(C)n2nc(C)c3sc4ccccc4c3c2=O)c(C)c1` (stereo not shown) [E019-0435], the “NAMPT inhibition activity at 20 μM” value was “No (showed no NAMPT inhibition activity at 20 μM (NAMPT activity ≥40%))”.

In the case of `Cc1nn(CCCC(=O)Nc2ccccc2C(F)(F)F)c(=O)c2c1sc1ccccc12` [E019-0923], the “NAMPT inhibition activity at 20 μM” value is “No (showed no NAMPT inhibition activity at 20 μM (NAMPT activity ≥40%))”.

For the molecule `COc1cc(OC)c(NC(=O)CCCn2nc(C)c3sc4ccccc4c3c2=O)cc1Cl` [E019-0951], the “NAMPT inhibition activity at 20 μM” value is reported as “No (showed no NAMPT inhibition activity at 20 μM (NAMPT activity ≥40%))”.

Turning to `Cc1ccccc1CNC(=O)CCCn1nc(C)c2sc3ccccc3c2c1=O` [E019-1139], the “NAMPT inhibition activity at 20 μM” value is on record as “No (showed no NAMPT inhibition activity at 20 μM (NAMPT activity ≥40%))”.

With `CC(=O)c1cccc(NC(=O)Cc2noc3ccccc23)c1` [E207-0513], the “NAMPT inhibition activity at 20 μM” value was “No (showed no NAMPT inhibition activity at 20 μM (NAMPT activity ≥40%))”.

On to `COc1ccc(CNC(=O)Cn2c(=O)c3cccn3c3cccnc32)cc1` [E524-0113], for which the “NAMPT inhibition activity at 20 μM” value is “No (showed no NAMPT inhibition activity at 20 μM (NAMPT activity ≥40%))”.

In the case of `Cc1ccccc1CNC(=O)Cn1c(=O)c2cccn2c2cccnc21` [E524-0298], the “NAMPT inhibition activity at 20 μM” value is “No (showed no NAMPT inhibition activity at 20 μM (NAMPT activity ≥40%))”.

In the case of `O=C(Cn1c(=O)c2cccn2c2cccnc21)NCc1ccccc1F` [E524-0299], the “NAMPT inhibition activity at 20 μM” value is listed as “No (showed no NAMPT inhibition activity at 20 μM (NAMPT activity ≥40%))”.

Regarding `O=C(Cn1c(=O)c2cccn2c2cccnc21)NCc1cccc(F)c1` [E524-0302], the “NAMPT inhibition activity at 20 μM” value was “No (showed no NAMPT inhibition activity at 20 μM (NAMPT activity ≥40%))”.

Take `Cc1ccc(Cl)cc1NC(=O)CCCn1c(=O)c2cccn2c2cccnc21` [E524-1295]: the “NAMPT inhibition activity at 20 μM” value is recorded as “No (showed no NAMPT inhibition activity at 20 μM (NAMPT activity ≥40%))”.

Turning to `Cc1ccc(NC(=O)CCCn2c(=O)c3cccn3c3cccnc32)c(Cl)c1` [E524-1338], the “NAMPT inhibition activity at 20 μM” value is recorded as “No (showed no NAMPT inhibition activity at 20 μM (NAMPT activity ≥40%))”.

`COc1ccc(Cl)cc1NC(=O)CCCn1c(=O)c2cccn2c2cccnc21` [E524-1372]: the “NAMPT inhibition activity at 20 μM” value was “No (showed no NAMPT inhibition activity at 20 μM (NAMPT activity ≥40%))”.

Take `CCOc1ccc(CCNC(=O)CCCn2c(=O)c3cccn3c3cccnc32)cc1` [E524-1469]: the “NAMPT inhibition activity at 20 μM” value is on record as “No (showed no NAMPT inhibition activity at 20 μM (NAMPT activity ≥40%))”.

As for `COc1ccc(OC)c(CCNC(=O)CCCn2c(=O)c3cccn3c3cccnc32)c1` [E524-1470], the “NAMPT inhibition activity at 20 μM” value is recorded as “No (showed no NAMPT inhibition activity at 20 μM (NAMPT activity ≥40%))”.

For `COc1cccc(CNC(=O)CCCn2c(=O)c3cccn3c3cccnc32)c1OC` [E524-1489], the “NAMPT inhibition activity at 20 μM” value is on record as “No (showed no NAMPT inhibition activity at 20 μM (NAMPT activity ≥40%))”.

Take `COc1ccc(Br)cc1CNC(=O)CCCn1c(=O)c2cccn2c2cccnc21` [E524-1499]: the “NAMPT inhibition activity at 20 μM” value was “No (showed no NAMPT inhibition activity at 20 μM (NAMPT activity ≥40%))”.

With `CCC(C)NC(=O)c1ccc(Cn2c(=O)c3cccn3c3cccnc32)cc1` (stereo not shown) [E524-1568], the “NAMPT inhibition activity at 20 μM” value is “No (showed no NAMPT inhibition activity at 20 μM (NAMPT activity ≥40%))”.

With `O=C(NCc1ccccc1Cl)c1ccc(Cn2c(=O)c3cccn3c3cccnc32)cc1` [E524-1573], the “NAMPT inhibition activity at 20 μM” value was “Yes”.

Regarding `COc1ccc(CCNC(=O)c2ccc(Cn3c(=O)c4cccn4c4cccnc43)cc2)cc1OC` [E524-1586], the “NAMPT inhibition activity at 20 μM” value is “No (showed no NAMPT inhibition activity at 20 μM (NAMPT activity ≥40%))”.

On to `CN(C)CCNC(=O)c1ccc(Cn2c(=O)c3cccn3c3cccnc32)cc1` [E524-1589], for which the “NAMPT inhibition activity at 20 μM” value is listed as “No (showed no NAMPT inhibition activity at 20 μM (NAMPT activity ≥40%))”.

Turning to `CC(C)NC(=O)c1ccc(Cn2c(=O)c3cccn3c3cccnc32)cc1` [E524-1612], the “NAMPT inhibition activity at 20 μM” value is recorded as “No (showed no NAMPT inhibition activity at 20 μM (NAMPT activity ≥40%))”.

Turning to `CCCNC(=O)c1ccc(Cn2c(=O)c3cccn3c3cccnc32)cc1` [E524-1613], the “NAMPT inhibition activity at 20 μM” value is given as “No (showed no NAMPT inhibition activity at 20 μM (NAMPT activity ≥40%))”.

Turning to `CCOCCCNC(=O)c1ccc(Cn2c(=O)c3cccn3c3cccnc32)cc1` [E524-1662], the “NAMPT inhibition activity at 20 μM” value is given as “No (showed no NAMPT inhibition activity at 20 μM (NAMPT activity ≥40%))”.

Turning to `CC(C)OCCCNC(=O)c1ccc(Cn2c(=O)c3cccn3c3cccnc32)cc1` [E524-1673], the “NAMPT inhibition activity at 20 μM” value is recorded as “No (showed no NAMPT inhibition activity at 20 μM (NAMPT activity ≥40%))”.

On to `COc1ccc(CNC(=O)c2ccc(Cn3c(=O)c4cccn4c4cccnc43)cc2)c(OC)c1` [E524-1754], for which the “NAMPT inhibition activity at 20 μM” value is on record as “No (showed no NAMPT inhibition activity at 20 μM (NAMPT activity ≥40%))”.

As to `CN(C)c1ccc(CNC(=O)c2ccc(Cn3c(=O)c4cccn4c4cccnc43)cc2)cc1` [E524-1758], the “NAMPT inhibition activity at 20 μM” value is given as “No (showed no NAMPT inhibition activity at 20 μM (NAMPT activity ≥40%))”.

With `CCOc1ccc(CCNC(=O)c2ccc(Cn3c(=O)c4cccn4c4cccnc43)cc2)cc1` [E524-1767], the “NAMPT inhibition activity at 20 μM” value is on record as “No (showed no NAMPT inhibition activity at 20 μM (NAMPT activity ≥40%))”.

Regarding `COc1ccc(Cl)cc1NC(=O)NCc1noc2ccccc12` [E567-0019], the “NAMPT inhibition activity at 20 μM” value is reported as “No (showed no NAMPT inhibition activity at 20 μM (NAMPT activity ≥40%))”.

`O=C(NCc1ccc(Cl)cc1)NCc1noc2ccccc12` [E567-0228]: the “NAMPT inhibition activity at 20 μM” value is listed as “No (showed no NAMPT inhibition activity at 20 μM (NAMPT activity ≥40%))”.

Consider `CCOc1ccccc1NC(=O)NCc1noc2ccc(C)cc12` [E569-0079], for which the “NAMPT inhibition activity at 20 μM” value was “No (showed no NAMPT inhibition activity at 20 μM (NAMPT activity ≥40%))”.

Turning to `COc1ccc(OC)c(CNC(=O)NCc2noc3ccc(C)cc23)c1` [E569-0193], the “NAMPT inhibition activity at 20 μM” value is on record as “No (showed no NAMPT inhibition activity at 20 μM (NAMPT activity ≥40%))”.

Take `Cc1ccc2onc(CNC(=O)Nc3ccccc3C#N)c2c1` [E569-0217]: the “NAMPT inhibition activity at 20 μM” value is given as “No (showed no NAMPT inhibition activity at 20 μM (NAMPT activity ≥40%))”.

Turning to `O=C(COc1ccc(F)cc1)Nc1ccccc1C(=O)OCc1cc(=O)n2ccsc2n1` [G357-1695], the “NAMPT inhibition activity at 20 μM” value is reported as “No (showed no NAMPT inhibition activity at 20 μM (NAMPT activity ≥40%))”.

On to `Cc1cn2c(=O)cc(COC(=O)c3cccc(NC(=O)C(C)Oc4ccccc4)c3)nc2s1` (stereo not shown) [G357-2118], for which the “NAMPT inhibition activity at 20 μM” value was “No (showed no NAMPT inhibition activity at 20 μM (NAMPT activity ≥40%))”.

For `Cc1ccc2c(=O)cc(CSc3nnc(-c4ccccc4)n3C)[nH]c2c1C` [G751-0753], the “NAMPT inhibition activity at 20 μM” value is listed as “No (showed no NAMPT inhibition activity at 20 μM (NAMPT activity ≥40%))”.
